{"source": "patent US20170128362A1", "about": "“APPLICATION OF LARGE-DOSE GLYCERINUM IN FREEZE-THAWING TOLERABLE LIPID EMULSION” (Shengyang Pharmaceutical University, priority 2014, published 2017)", "origin": "cited, not measured here", "conditions": "0.005% sodium oleate", "data": [{"smiles": "CCCCCCCC/C=C\\CCCCCCCC(=O)[O-].[Na+]", "note": "[sodium oleate]", "values": [{"measurement": "hemolysis", "value": 100, "unit": "%"}]}]}
